Data reported in PubChem BioAssay (NCI).
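Results reflect a 48-hour exposure of cells in 96-well plates to compound at five concentrations. GI50 marks 50% less growth. At the TGI there is no net growth.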

How the values were obtained:
Test in all cases: inhibition of tumour cell growth, NCI panel, 48 h
K-562 leukemia = test system: K-562 leukemia
LXFL 529 NSCLC = test system: LXFL 529 NSCLC
MOLT-4 leukemia = test system: MOLT-4 leukemia
NCI-H226 lung = test system: NCI-H226 lung
NCI/ADR-RES ovarian = test system: NCI/ADR-RES ovarian
RPMI-8226 leukemia = test system: RPMI-8226 leukemia
SF-295 CNS = test system: SF-295 CNS
SNB-78 CNS = test system: SNB-78 CNS
SW-620 colon = test system: SW-620 colon
UO-31 renal = test system: UO-31 renal

Structure (SMILES)	TGI (K-562 leukemia) [µM]	TGI (LXFL 529 NSCLC) [µM]	TGI (MOLT-4 leukemia) [µM]	TGI (NCI-H226 lung) [µM]	TGI (NCI/ADR-RES ovarian) [µM]	TGI (RPMI-8226 leukemia) [µM]	TGI (SF-295 CNS) [µM]	TGI (SNB-78 CNS) [µM]	TGI (SW-620 colon) [µM]	TGI (UO-31 renal) [µM]	GI50 (K-562 leukemia) [µM]	GI50 (LXFL 529 NSCLC) [µM]	GI50 (MOLT-4 leukemia) [µM]	GI50 (NCI-H226 lung) [µM]	GI50 (RPMI-8226 leukemia) [µM]	GI50 (SF-295 CNS) [µM]	GI50 (SNB-78 CNS) [µM]	GI50 (SW-620 colon) [µM]	GI50 (UO-31 renal) [µM]
CCCCCCC/C=C1\CCC(CN(C)C)C1=O (configuration not stated)	9.53	20.8	7	48.4	14.6	5.26	30.1	35.8	18	29.1									
C/C=C(\C)C(=O)N1c2ccccc2CC1c1c(C)[nH]c2ccccc12 (configuration not stated)	> 100	> 100	> 100	> 100		> 100	> 100	> 100	> 100	> 100									
CC(=O)OC1(C#N)CC2OC1C1N=NN(C(=O)OC(C)(C)C)C21 (configuration not stated)	> 100	> 100	> 100	> 100		> 100	> 100	> 77	23.1	> 100									
COc1c(Cl)[c]([Hg][O]C(C)=O)c(NCC(C)=O)c(OC)[c]1[Hg][O]C(C)=O	> 100	3.68	48.5	43.1		38.8	45.2	43.2	62.4	40	11.8	1.06	17.1	18.7	15	20.2	15.9	19.6	22
OCCCCCNc1ccnc2cc(Cl)ccc12	64.7	> 100	> 100	> 100		> 100	> 100	> 100	> 100	> 100									
CCOC(=O)NC(=O)c1cn(C2OC(COC(=O)CCCCCCCCC(=O)OCC3OC(n4cc(C(=O)NC(=O)OCC)c(=O)[nH]c4=O)C4OC(C)(C)OC34)C3OC(C)(C)OC32)c(=O)[nH]c1=O (configuration not stated)	> 100	> 100	> 100	> 100		> 100	> 100	> 100	> 100	> 100									
COc1cc(OC)cc(C(=O)Cc2c(C(=O)c3ccccc3)c3ccccc3n2C(=O)c2ccccc2)c1	> 100	> 100	> 100	> 100		> 100	94.9	> 100	> 100	> 100									
CC(CCC(=O)O)c1ccc(Br)cc1 (configuration not stated)	> 100	> 100	> 100	> 100		> 100	> 100	> 100	> 100	> 100									
